This passage reports IC50 results from patent publication US9499495B2, “Quinazolines and azaquinazolines as dual inhibitors of RAS/RAF/MEK/ERK and PI3K/AKT/PTEN/mTOR pathways” (Asana Biosciences, LLC, priority 2013, dated 2016).

One test relates to pERK in A375 cells. The test is described as follows: In Cell Western (ICW) assay, pERK in A375 cells. Type of test: cell-based. The conditions noted are these: Homo sapiens, A-375, 3 h treatment. Here is the method: Cell lines A375, A2058 and RKO obtained from the ATCC as provided above, were grown, and after attaining ˜80% confluency were trypsinized, centrifuged and resuspended in fresh media. The cells were seeded at the specified density (20,000 to 50,000) in a 96-well format black-well clear bottom plate (Corning) and incubated overnight at 37° C. in a 5% CO2 incubator. The next day, compound dilutions of test compounds were prepared in 100% DMSO followed by dilutions in respective media. Treatment of test compounds was performed for 3 h at 37° C. in 5% CO2 incubator. Following 3 h drug treatment, the conditional media was discarded and the cells were washed once with cPBS (PBS containing 0.1% magnesium chloride hexahydrate and 0.1% anhydrous calcium chloride) and fixed with 4% paraformaldehyde in cPBS for 1 h at rt. After fixing, the cells were given three washes using cPBST (cPBS containing 0.1% Triton™ X-100 reagent) and then blocked using blocking solution (5% skimmed milk powder or 5% BSA prepared in cPBST) for 2 h at rt with shaking at 300 rpm. The cells were again washed thrice with cPBST and incubated with primary antibody phospho-p44/42 MAPK(Erk1/2)(Thr202/204) antibody (Cell Signaling, Catalog # 9101L), phospho S6 ribosomal protein (Cell Signaling, Catalog #4858L), phospho AKT (Thr 308) (Cell Signaling, Catalog #9275) or phospho AKT (Ser 473) (Cell Signaling, Catalog #4060L) in specified dilutions (1:500-1:2500), prepared in respective blocking solutions, in a racker overnight at 4° C. The next day, the cells were washed with 1× Delfia® wash buffer (4×1 wash) and incubated with secondary antibody (Delfia®-Eu-N1 labeled anti-rabbit antibody; PerkinElmer, Catalog #AD0105; dilutions: 1:2000 to 1:6000 in Delfia® assay buffer (PerkinElmer, Catalog #1244-111)) for 2 h at rt in the dark at 300 rpm. The cells were then given four washes with 1× Delfia® wash buffer and incubated with Wallac Delfia® Enhancement solution (100 μL; PerkinElmer, Catalog #1244-105) for 20 min at rt in the dark at 300 rpm. The fluorescence emission was then read at 615 nm with an excitation wavelength of 340 nm using a Victor V5 Fluorometer (Perkin Elmer, US). The cells were then washed once with 1×cPBS and incubated with 100 μL of 0.5 mg/mL of Hoechst 33258 dye prepared in cPBS and read at 460 nm with 355 nm excitation, thereby evaluating the correction factor.
The % inhibition for the test compounds of formula (I) (new chemical entities (NCEs)) was calculated keeping DMSO control as 0% and the IC50 values were determined using sigmoidal dose response curve fit in GraphPad Prism® v5 software.

A further test addresses T1, B-RAFV600E (Homo sapiens, UniProt P15056, V600E).
T1 construct: purchased Millipore, USA 14-557
In words: B-RAFV600E radiometric assay. The class given is biochemical. The conditions noted are these: read-out: Kinase assay B-Raf. The procedure: Compound inhibition for B-RAFV600E was determined through radiometric assay using a BRAF enzyme (Catalog No. 14-557, Millipore, USA) and MEK-K97M protein as a substrate (Catalog No. 0785-0000-1, ProqQinase GmbH, Germany). The B-RAF kinase catalyzes the phosphorylation of MEK protein in the presence of gamma ATP (PLC-101, Jonaki, CCMB, Hyderabad), cold ATP and Mg^2+.
The phosphorylated protein product is detected by the scintillation counter Topcount® machine (Perkin Elmer). This assay has been adapted from the method previously reported by Yeh et al. (2007, Clinical Cancer Research; 13, 1576-1583). The assay measures the B-RAF mediated transfer of 32P from the gamma position of radiolabeled ATP onto MEK1-KD. The labeled phosphorylated protein was measured in MicroBeta® Trilux Counter (Perkin Elmer). The assay was validated with reference compounds RAF1 Kinase Inhibitor I and ZM 336372 inhibitor which are reported to be inhibitors of B-RAF enzyme (Lackey, 2000, Medicinal Chemistry Letters; 10(3):223-226; Kupcho, “Fluorescent High throughput kinase cascade assays for inhibitor characterization, RAF-MEK-ERK pathway, www.invitrogen.com, and Hall-Jackson, 1999, Chemical Biology; 6(8):559-568). B-RAF enzyme mixture (13 μL) was added to compound wells containing 2 μL of the NCE in 1% DMSO and incubated for 45 min at rt on a shaking incubator at 300 rpm. MEK-K97M (0.5 μg) and cold ATP to a final concentration of 5 μM, and hot ATP 0.1 μCi in a volume of 10 μL was added to each well and incubated for 2 h at rt on a shaking incubator at 300 rpm. The reaction was stopped by addition of […] (13 μL) containing ATP (1 mM: 495 μL 1N HCl and 5 μL 100 mM ATP). Aliquot (30 μL) was then transferred to the center of a 2 cm×2 cm P81 paper. P81 paper was washed 8×5 min each with ortho-phosphoric acid (0.5%). P81 papers are washed twice with acetone for […] Assay squares were allowed to dry for […] at 37° C. P81 paper are transferred to Optiplate™ (Perkin Elmer) and counted in a Topcount® counter (Perkin Elmer). Data was plotted against the compound concentration to generate dose-response curves and IC50 values were determined using a sigmoidal dose response curve fit GraphPad Prism® v5 software.

A further test concerns the target T2, mTOR kinase (Homo sapiens, UniProt P42345).
T2 construct: purchased Millipore, US
In words: mTOR kinase TR-FRET assay. Type of test: biochemical. The procedure:
Compound inhibition for mTOR kinase was determined by homogeneous TR-FRET assay using ULight-p70 S6K (Thr 389) peptide as substrate. mTOR enzyme (Millipore, US; […]) was used in the assay. The reaction buffer was HEPES (50 mM, pH 7.5), EGTA (1 mM), and MnCl2 (3 mM). Test compound was pre-incubated with mTOR for 30 min followed by 50 nM ULight-p70 S6K (Thr 389) peptide along with ATP (20 μM).
After incubating the reaction mixture for 30 min, Eu-labeled anti-phospho-substrate antibody (1 nM, Perkin Elmer, USA) was added. Fluorescence emission at […] was measured upon excitation at 340 nm. The compound dilution was carried out in 100% DMSO followed by a buffer dilution. The kinase reaction was incubated for 1 h at rt followed by the addition of substrate-ATP mix and incubated at rt for 1 h. The reaction was terminated by the addition of EDTA followed by the addition of detection mix. IC50 values were determined using a sigmoidal dose response curve fit, GraphPad Prism® v5 software.

The structures appear in SMILES notation.

T1 sequence (P15056 416-766 V600E limits assumed): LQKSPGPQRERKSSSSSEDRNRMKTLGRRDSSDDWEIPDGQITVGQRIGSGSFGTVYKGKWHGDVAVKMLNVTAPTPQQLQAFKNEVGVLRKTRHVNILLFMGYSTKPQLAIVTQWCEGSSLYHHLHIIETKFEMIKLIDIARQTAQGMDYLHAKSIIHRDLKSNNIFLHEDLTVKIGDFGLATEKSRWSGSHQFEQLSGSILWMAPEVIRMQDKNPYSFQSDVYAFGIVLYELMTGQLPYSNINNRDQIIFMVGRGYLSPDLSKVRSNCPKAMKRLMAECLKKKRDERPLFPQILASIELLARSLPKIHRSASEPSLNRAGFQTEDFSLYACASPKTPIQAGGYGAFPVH
T2 sequence (P42345 1362-2549 limits assumed): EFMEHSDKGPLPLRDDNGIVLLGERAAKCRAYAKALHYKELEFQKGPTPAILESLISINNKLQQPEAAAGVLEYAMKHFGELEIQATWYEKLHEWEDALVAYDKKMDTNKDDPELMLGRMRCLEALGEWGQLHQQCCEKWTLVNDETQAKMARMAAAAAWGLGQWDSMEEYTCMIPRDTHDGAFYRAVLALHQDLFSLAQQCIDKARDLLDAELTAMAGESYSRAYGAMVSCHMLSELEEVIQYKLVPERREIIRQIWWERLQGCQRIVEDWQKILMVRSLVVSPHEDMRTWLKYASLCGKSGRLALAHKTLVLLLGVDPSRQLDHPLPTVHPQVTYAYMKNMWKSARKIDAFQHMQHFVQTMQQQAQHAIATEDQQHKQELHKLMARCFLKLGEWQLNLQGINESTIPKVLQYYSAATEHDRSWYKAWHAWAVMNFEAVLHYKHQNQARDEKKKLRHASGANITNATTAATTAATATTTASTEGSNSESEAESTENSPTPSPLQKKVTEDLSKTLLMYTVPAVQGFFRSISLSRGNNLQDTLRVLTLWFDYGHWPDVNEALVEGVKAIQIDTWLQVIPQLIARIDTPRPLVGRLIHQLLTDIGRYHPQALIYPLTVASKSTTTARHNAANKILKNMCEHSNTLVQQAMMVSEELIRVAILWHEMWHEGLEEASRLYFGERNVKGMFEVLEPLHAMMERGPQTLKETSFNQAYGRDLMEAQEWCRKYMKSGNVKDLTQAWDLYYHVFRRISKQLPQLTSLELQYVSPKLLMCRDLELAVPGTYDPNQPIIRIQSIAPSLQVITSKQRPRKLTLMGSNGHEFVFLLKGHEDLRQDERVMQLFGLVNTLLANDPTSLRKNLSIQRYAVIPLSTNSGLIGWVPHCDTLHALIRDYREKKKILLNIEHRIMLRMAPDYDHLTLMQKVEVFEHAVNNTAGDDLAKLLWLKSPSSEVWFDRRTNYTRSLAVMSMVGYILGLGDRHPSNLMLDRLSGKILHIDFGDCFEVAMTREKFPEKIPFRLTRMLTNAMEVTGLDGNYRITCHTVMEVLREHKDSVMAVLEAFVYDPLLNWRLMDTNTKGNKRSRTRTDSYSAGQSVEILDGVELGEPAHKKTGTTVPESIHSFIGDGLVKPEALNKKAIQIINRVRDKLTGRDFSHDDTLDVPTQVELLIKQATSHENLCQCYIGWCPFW

As to `Nc1ccc(-c2nc(N3CCOCC3)c3cc(-c4cccc(NS(=O)(=O)CCCF)c4F)cc(OCC4CC4)c3n2)cn1` [Example 57, N-(3-(2-(6-aminopyridin-3-yl)-8-(cyclopropylmethoxy)-4-morpholinoquinazolin-6-yl)-2-fluorophenyl)-3-fluoropropane-1-sulfonamide], the values for the IC50 in the test on pERK in A375 cells, on B-RAFV600E and at mTOR kinase were 1 to 100 nM, 1 to 100 nM and 100 to 1000 nM, respectively.

Regarding `COc1cc(-c2cccc(NS(=O)(=O)c3c(F)cccc3F)c2F)cc2c(N3CCOCC3)nc(-c3cnc4[nH]ccc4c3)nc12` [Example 16, 2,6-difluoro-N-(2-fluoro-3-(8-methoxy-4-morpholino-2-(1H-pyrrolo[2,3-b]pyridin-5-yl)quinazolin-6-yl)phenyl)benzenesulfonamide], the IC50 with pERK in A375 cells, on B-RAFV600E and on mTOR kinase was 100 to 1000 nM each time.

Regarding `CCNc1ccc(-c2nc(N3CCOCC3)c3nc(-c4cccc(NS(=O)(=O)CCCF)c4F)ccc3n2)cn1` [Example 123, N-(3-(2-(6-(ethylamino)pyridin-3-yl)-4-morpholinopyrido[3,2-d]pyrimidin-6-yl)-2-fluorophenyl)-3-fluoropropane-1-sulfonamide], the IC50 with pERK in A375 cells, on B-RAFV600E and at mTOR kinase was 1 to 100 nM each time.

For the compound `Nc1ccc(-c2nc(N3CCOCC3)c3cc(-c4cccc(NS(=O)(=O)CCCF)c4F)cc(OCCO)c3n2)cn1` [Example 58, N-(3-(2-(6-aminopyridin-3-yl)-8-(2-hydroxyethoxy)-4-morpholinoquinazolin-6-yl)-2-fluorophenyl)-3-fluoropropane-1-sulfonamide], the IC50 in the test on pERK in A375 cells was in the range of 100 to 1000 nM; on B-RAFV600E it was 1 to 100 nM; against mTOR kinase, 1 to 100 nM.

For the compound `CNC(=O)Nc1ccc(-c2nc(N3CCOCC3)c3cc(-c4cccc(NS(=O)(=O)CCCF)c4F)cc(OC)c3n2)cc1` [Example 32, 3-fluoro-N-(2-fiuoro-3-(8-methoxy-2-(4-(3-methylureido)phenyl)-4-morpholinoquinazolin-6-yl)phenyl)propane-1-sulfonamide], the IC50 in the test on pERK in A375 cells was 100 to 1000 nM; at B-RAFV600E, 100 to 1000 nM; against mTOR kinase, 1 to 100 nM.

As for `COc1cc(-c2cccc(NS(=O)(=O)c3c(F)cccc3F)c2F)cc2c(N3CCOCC3)nc(-c3ccc(NC(=O)NCCO)cc3)nc12` [Example 12, 2,6-difluoro-N-(2-fluoro-3-(2-(4-(3-(2-hydroxyethyl)ureido)phenyl)-8-methoxy-4-morpholinoquinazolin-6-yl)phenyl)benzenesulfonamide], the IC50 in the test on pERK in A375 cells fell in the range of 1000 to 10000 nM; at B-RAFV600E, 100 to 1000 nM; against mTOR kinase, 1 to 100 nM.

On to `C[C@@H]1COCCN1c1nc(-c2cnc(N)nc2)nc2c(OCCF)cc(-c3cccc(NS(=O)(=O)CCCF)c3F)cc12` [Example 141, (R)-N-(3-(2-(2-aminopyrimidin-5-yl)-8-(2-fluoroethoxy)-4-(3-methylmorpholino)quinazolin-6-yl)-2-fluorophenyl)-3-fluoropropane-1-sulfonamide], for which the results for the IC50 at B-RAFV600E and at mTOR kinase were 1 to 100 nM and 100 to 1000 nM, respectively.

Regarding `CCCS(=O)(=O)Nc1cccc(-c2cc(OC)c3nc(-n4c(CO)nc5ccccc54)nc(N4CCOCC4)c3c2)c1F` [Example 10, N-(2-fluoro-3-(2-(2-(hydroxymethyl)-1H-benzo[d]imidazol-1-yl)-8-methoxy-4-morpholinoquinazolin-6-yl)phenyl)propane-1-sulfonamide], the IC50 on B-RAFV600E and against mTOR kinase was 100 to 1000 nM in each case.

As for `COc1cc(-c2cccc(NS(=O)(=O)CCCF)c2F)cc2c(N3CCOCC3)nc(-c3ccc(NC(C)=O)cc3)nc12` [Example 125, N-(4-(6-(2-fluoro-3-(3-fluoropropylsulfonamido)phenyl)-8-methoxy-4-morpholinoquinazolin-2-yl)phenyl)acetamide], the IC50 lay within 1 to 100 nM in the test on pERK in A375 cells, 100 to 1000 nM at B-RAFV600E and 1 to 100 nM against mTOR kinase.

For the compound `COc1cc(-c2cccc(NS(=O)(=O)CCC(F)(F)F)c2F)cc2c(N3CCOCC3)nc(-c3ccc(N)nc3)nc12` [Example 31, N-(3-(2-(6-aminopyridin-3-yl)-8-methoxy-4-morpholinoquinazolin-6-yl)-2-fluorophenyl)-3,3,3-trifluoropropane-1-sulfonamide], the IC50 at B-RAFV600E and against mTOR kinase was 100 to 1000 nM in each case.

Turning to `C[C@@H]1COCCN1c1nc(-c2ccc(N)nc2)nc2c(N3CCCC3)cc(-c3cccc(NS(=O)(=O)CCCF)c3F)cc12` [Example 74, (R)-N-(3-(2-(6-aminopyridin-3-yl)-4-(3-methylmorpholino)-8-(pyrrolidin-1-yl)quinazolin-6-yl)-2-fluorophenyl)-3-fluoropropane-1-sulfonamide], the IC50 at B-RAFV600E was 1 to 100 nM; against mTOR kinase, 100 to 1000 nM.

Regarding `CCOc1cc(-c2cccc(NS(=O)(=O)CCCF)c2F)cc2c(N3CCOC[C@H]3C)nc(-c3cnc(NC)nc3)nc12` [Example 138, (R)-N-(3-(8-ethoxy-2-(2-(methylamino)pyrimidin-5-yl)-4-(3-methylmorpholino)quinazolin-6-yl)-2-fluorophenyl)-3-fluoropropane-1-sulfonamide], the IC50 at B-RAFV600E was 1 to 100 nM; against mTOR kinase, 100 to 1000 nM.
